The text below walks through data of US4864023A, “Pyrido(3,2,1-IJ)-1,3,4-benzoxadiazine derivatives” (priority 1988, dated 1989).

Converted amounts (≈) assume the structure as drawn.

Assay type in all cases: cell-based
Experiment [1] has as its system Staphylococcus aureus Smith. The experiment can be described thus: in vitro antibacterial activity, standard agar dilution method. Particulars: Staphylococcus aureus Smith; aerobic; agar dilution; read-out: minimum inhibitory concentration (MIC).
Experiment [2] has as its system Staphylococcus epidermidis NR 2942. The description is as above. The following applies: NR2942, aerobic, read-out: minimum inhibitory concentration (MIC).
For experiment [3], the system named is Enterobacter aerogenes NR 2945. The description is as above. Particulars: Klebsiella aerogenes, NR2945, aerobic, read-out: minimum inhibitory concentration (MIC).
For experiment [4], the system named is Enterobacter cloacae NR 2946. The experiment is described as above. The following applies: NR2946, aerobic, read-out: minimum inhibitory concentration (MIC).
A further experiment has as its system Escherichia coli NR 2630. Described as above. Particulars: NR2630; Escherichia coli NR 2630; aerobic; agar dilution; read-out: minimum inhibitory concentration (MIC).
Experiment [5] deals with Proteus rettgeri ATCC 14505. The experiment is described as above. The following applies: Providencia rettgeri, ATCC14505, aerobic, read-out: minimum inhibitory concentration (MIC).
Experiment [6] has as its system Pseudomonas aeruginosa A3. Described as above. The following applies: aerobic, read-out: minimum inhibitory concentration (MIC).
In experiment [7] the test system is Pseudomonas aeruginosa NR 2950. The experiment is described as above. The following applies: NR2950, aerobic, read-out: minimum inhibitory concentration (MIC).
The test system of experiment [8] is Salmonella typhimurium IFO 12529. The description is as above. Particulars: Salmonella enterica, aerobic, read-out: minimum inhibitory concentration (MIC).
For experiment [9], the system named is Clostridium botulinum NR 26ll. The experiment can be described thus: microbe, parasite or virus in culture. Particulars: NR26LL, read-out: minimum inhibitory concentration (MIC).
Experiment [10] relates to Clostridium moniliforme ATCC 25546. The experiment can be described thus: in vitro antibacterial activity, standard agar dilution method. The following applies: ATCC25546, anaerobic, read-out: minimum inhibitory concentration (MIC).
In experiment [11] the test system is Fusobacterium varium ATCC 8501. Described as above. Particulars: ATCC8501, anaerobic, read-out: minimum inhibitory concentration (MIC).
The subject of experiment [12] is Peptococcus variabilis ATCC 14955. The description is as above. The following applies: anaerobic, read-out: minimum inhibitory concentration (MIC).
Experiment [13] relates to Peptostreptococcus anaerobius NR 2743. The experiment is described as above. Particulars: NR2743, anaerobic, read-out: minimum inhibitory concentration (MIC).

Consider `CN1CCN(c2c(F)cc3c(=O)c(C(=O)O)cn4c3c2OCN4C)CC1` [Example 5, 9-fluoro-3-methyl-10-(4-methyl-1-piperazinyl)-7-oxo-2,3-dihydro-7H-pyrido[3,2,1-ij]-1,3,4-benzoxadiazine-6-carboxylic acid], for which the MIC stood at 0.2 µg/mL (≈ 0.552 µM) in experiment [1]; 0.39 µg/mL (≈ 1.08 µM) in experiment [2]; 0.013 µg/mL (≈ 0.0359 µM) in [3]; 0.025 µg/mL (≈ 0.069 µM) in experiment [4]; 0.013 µg/mL (≈ 0.0359 µM) in the experiment on Escherichia coli NR 2630; 0.2 µg/mL (≈ 0.552 µM) in experiment [5]. Further, the MIC was 0.2 µg/mL (≈ 0.552 µM) in experiment [6]; 0.78 µg/mL (≈ 2.15 µM) in experiment [7]; 0.025 µg/mL (≈ 0.069 µM) in experiment [8]; 0.1 µg/mL (≈ 0.276 µM) in experiment [9]; 0.78 µg/mL (≈ 2.15 µM) in [10]; 12.5 µg/mL (≈ 34.5 µM) in [11]. For the same compound, the MIC in [12] was 0.78 µg/mL (≈ 2.15 µM); in [13], 0.39 µg/mL (≈ 1.08 µM).
Regarding `CN1COc2c(N3CCC(N)C3)c(F)cc3c(=O)c(C(=O)O)cn1c23` (stereo not drawn) [Example 30, 10-(3-amino-1-pyrrolidinyl)-9-fluoro-3-methyl-7-oxo-2,3-dihydro-7H-pyrido[3,2,1-ij]-1,3,4-benzoxadiazine-6-carboxylic acid], the MIC in experiment [1] came to 0.05 µg/mL (≈ 0.144 µM); in [2], 0.2 µg/mL (≈ 0.574 µM); in experiment [3] it was 0.0033 µg/mL (≈ 0.00947 µM); in [4], 0.013 µg/mL (≈ 0.0373 µM); in the experiment with Escherichia coli NR 2630, 0.0065 µg/mL (≈ 0.0187 µM); in experiment [5], 0.1 µg/mL (≈ 0.287 µM). For the same compound, the MIC in experiment [6] worked out at 0.05 µg/mL (≈ 0.144 µM); in experiment [7] it was 0.2 µg/mL (≈ 0.574 µM); in experiment [8], 0.0065 µg/mL (≈ 0.0187 µM); in [9] it was 0.013 µg/mL (≈ 0.0373 µM); in [10], 0.1 µg/mL (≈ 0.287 µM); in experiment [12], 0.2 µg/mL (≈ 0.574 µM). In addition, the MIC in [13] was 0.013 µg/mL (≈ 0.0373 µM).
